Each structure is given as a SMILES string.

44 compounds from the Deep4Chem optical property database can be followed below.

The nature of this series: photoluminescence quantum yield (fraction); solvent given as SMILES.

Regarding `CC1(C)Cc2c(c3ccccc3c3nc4c5c(c6ccccc6c4nc23)OC(C)(C)C5)O1`, the photoluminescence quantum yield is 0.42 (in C1CCCCC1); 0.47 (in C1COCCO1); 1 (in CC#N); 1 (in CC(C)O); 0.27 (in CCCCCC); 1 (in CO). For the same compound, the photoluminescence quantum yield was found to be 0.53 (in ClC(Cl)Cl) and 0.52 (in c1ccccc1).
Turning to `CN(C)CCN(Cc1c2ccccc2c(CN(CCN(C)C)c2ccc([N+](=O)[O-])cc2[N+](=O)[O-])c2ccccc12)c1ccc([N+](=O)[O-])cc1[N+](=O)[O-]`, the photoluminescence quantum yield reads like this: (in C1CCOC1) 0.0052; (in CC#N) 0.00153; (in CC(C)=O) 0.0012; (in CCO) 0.0136; (in CN(C)C=O) 0.00067; (in CO) 0.0387.
For the setting “in C1CCOC1”, `COc1cc2oc(=O)c3c4ccc(C(=O)c5ccccc5)cc4c4ccc5cccc6c(c1)c2c3c4c56` yielded a photoluminescence quantum yield of 0.448.
On to `CC/[NH+]=c1\cc2oc3cc(NCCC(=O)NCCCCC(NC(C)=O)C(=O)OC)c4ccccc4c3nc-2cc1C` (stereo unspecified), for which the photoluminescence quantum yield (in CCO) was found to be 0.32 and the photoluminescence quantum yield (in O) was determined as 0.46.
As to `COc1cc(OC)cc(C2=C3C(C)=C(I)C(C)=[N+]3[B-](F)(F)n3c(C)c(I)c(C)c32)c1`, the photoluminescence quantum yield (in CS(C)=O) amounted to 0.03.
`N#Cc1nc(N(Cc2ccc(F)cc2)Cc2ccc(F)cc2)c(C#N)nc1N(Cc1ccc(F)cc1)Cc1ccc(F)cc1`: the photoluminescence quantum yield (in ClC(Cl)Cl) was found to be 0.76.
In turn, `COc1cc(-c2ncc(-c3ccncc3)o2)cc(OC)c1OC` returned a photoluminescence quantum yield (in ClCCl) of 0.54.
The same measure, in the same setting: under `CCCCCCCCCCCCCCCCCCOc1ccc([B-]23NC(c4ccccc4)=Nc4cccc([n+]42)N=C(c2ccccc2)N3)cc1` stands 0.14.
Compound `[NH3+]c1cc([NH3+])cc(-c2[nH+]c3ccccc3s2)c1` yielded a photoluminescence quantum yield (in O) of 0.008.
On to `CCCCN(CCCC)c1ccc(C#Cc2cc(C#Cc3ccc(C(F)(F)F)cc3)c(C#Cc3ccc(N(CCCC)CCCC)cc3)cc2C#Cc2ccc(C(F)(F)F)cc2)cc1`, for which the photoluminescence quantum yield (in ClCCl) is 0.5.
For the compound `C(=C\c1cnc2ccccc2n1)/c1ccc(-c2ccc(N(c3ccccc3)c3ccccc3)cc2)cc1`, the photoluminescence quantum yield (in ClCCl) was 0.35.
As to `CCCCCCCCCc1c2ccccc2cc2c1oc1c3c(c4ccccc4c12)-c1c(c2oc4cc5ccccc5cc4c2c2ccccc12)OCO3`, the photoluminescence quantum yield (in C1CCOC1) came out at 0.7.
Regarding `COc1ccc2cc(-c3ccc([N+](=O)[O-])cc3)ccc2c1`, the photoluminescence quantum yield amounted to 0.006 (in C1CCOC1), 0.006 (in CC#N), 0.055 (in ClC(Cl)Cl) and 0.11 (in ClCCl).
Regarding `C(S/C=C/c1ccc(-c2ccc(/C=C/SC=C(c3ccccc3)c3ccccc3)cc2)cc1)=C(c1ccccc1)c1ccccc1`, under “in ClCCl”, the photoluminescence quantum yield came out at 0.143.
`CCN(CC)c1ccc2c(-c3ccccc3C(=O)O)c3c([o+]c2c1)/C(=C/c1nc(C)n2ccccc12)CCC3` yielded a photoluminescence quantum yield (in ClCCl) of 0.3.
Regarding `CCCCN(CCCC)c1ccc(/C=C/c2ccc3nc(/C=C/c4ccc(N(C)C)cc4)c(-c4ccccc4)nc3c2)cc1`, the photoluminescence quantum yield was found to be 0.44 (in C1COCCO1), 0.02 (in CC#N) and 0.24 (in ClCCl).
As to `Fc1ccccc1-c1c2cc(Cl)ccc2nc2cc3ccccc3cc12`, the photoluminescence quantum yield (in ClCCl) is 0.46.
`CC(C)(C)C1Nc2ccccc2C(=O)N1Cc1ccccc1` (stereo unspecified): the photoluminescence quantum yield reads like this: (in CC#N) 0.09; (in CO) 0.034; (in ClC(Cl)Cl) 0.055; (in c1ccccc1) 0.08.
As to `O=C1c2ccccc2-c2cccc(O)c21`, the photoluminescence quantum yield runs as follows: (in C1CCCCC1) 0.0129; (in C1COCCO1) 0.0284; (in CC#N) 0.053; (in CC(C)O) 0.024; (in CCCCO) 0.022; (in CCCO) 0.021. Also, the photoluminescence quantum yield was 0.0197 (in CCO), 0.0383 (in CCOC(C)=O), 0.022 (in CCOCC) and 0.012 (in CO).
In turn, `COC(=O)c1ccc(/C=C2\C=C(c3ccc([N+](=O)[O-])cc3)OC2=O)cc1` yielded a photoluminescence quantum yield (in C1COCCO1) of 0.002.
As to `CCCC1(CCC)c2cc(-c3ccc(C(C)(C)CC)cc3)ccc2-c2ccc(-c3ccc(C(C)(C)CC)cc3)cc21`, under “in C1CCCCC1”, the photoluminescence quantum yield was determined as 0.92.
On to `c1ccc(-c2cc(-c3ccccc3)cc(-c3ccccc3)c2)cc1`, for which the photoluminescence quantum yield (in C1COCCO1) was 0.1.
On to `COc1ccc([C@@H]2C[C@](O)(c3ccccn3)C[C@](O)(c3ccccn3)[C@H]2C(=O)c2ccc(N(c3ccccc3)c3ccccc3)cc2)cc1`, for which the photoluminescence quantum yield (in C1CCOC1) stood at 0.5; the photoluminescence quantum yield (in CC#N) stood at 0.02; the photoluminescence quantum yield (in CCO) was 0.01; the photoluminescence quantum yield (in CCOC(C)=O) was found to be 0.42; the photoluminescence quantum yield (in CN(C)C=O) stood at 0.03; the photoluminescence quantum yield (in ClCCl) was 0.26. Further, under “in c1ccccc1”, the photoluminescence quantum yield turned out to be 0.93.
Regarding `Nc1ccc2cc3ccccc3cc2c1`, under “in C1CCCCC1”, the photoluminescence quantum yield was found to be 0.86.
Turning to `CCOC(=O)CC[N+]1=c2cc3c(cc2CCC1)=Cc1c(c2cc4c5c(c2oc1=O)CCCN5CCC4)O3`, the photoluminescence quantum yield is, setting by setting: (in CC#N) 0.024; (in CO) 0.017; (in ClCCl) 0.125; (in O) 0.002.
`O=[N+]([O-])c1ccc(S(=O)(=O)Nc2ccc(C#Cc3ccc4ccc5ccc(C#Cc6ccc(NS(=O)(=O)c7ccc([N+](=O)[O-])cc7[N+](=O)[O-])cc6)c6ccc3c4c56)cc2)c([N+](=O)[O-])c1` yielded a photoluminescence quantum yield (in CO) of 0.003.
For `CC1(C)C(=O)C=Cc2ccc(N)cc21`, the photoluminescence quantum yield (in O) was 0.14.
Where the note is “in CC#N”, `CCOC(=O)c1c2c3c(ccc(OC)c3c3cc4c(cc13)[Si](C)(C)O[Si]4(C)C)N(C)C2=O` displayed a photoluminescence quantum yield of 0.46.
Still for that read-out and setting: as for `Cc1cc2c(ccc3c(C)[n+](C)c(C)cc32)c(C)[n+]1C`, the figure is 0.29.
As to `COc1cccc(OC)c1C1=C2C(C)=CC(C)=[N+]2[B-](F)(F)n2c(C)cc(C)c21`, the photoluminescence quantum yield worked out at 0.64 (in C1CCOC1); 0.54 (in CC#N); 0.64 (in CC(=O)C(C)(C)C); 0.72 (in CC(C)=O); 0.71 (in CCCCCC); 0.47 (in CCOC(C)=O). For the same compound, the photoluminescence quantum yield (in CO) was found to be 0.58.
Regarding `c1ccc2c(c1)Sc1ccccc1N2c1ccc2c(ccc3nc4ccc5cc(N6c7ccccc7Sc7ccccc76)ccc5c4nc32)c1`, the photoluminescence quantum yield came to 0.06 (in C1CCCCC1) and 0.07 (in Cc1ccccc1).
On to `CN(C)c1ccc2nc(-c3ccc(C(=O)OC(C)(C)C)cc3)sc2c1`, for which the photoluminescence quantum yield runs as follows: (in C1CCCCC1) 0.84; (in CC#N) 0.81; (in CC(C)O) 0.84; (in CO) 0.72; (in CS(C)=O) 0.91; (in ClC(Cl)Cl) 0.87. Where the note is “in c1ccccc1”, this compound showed a photoluminescence quantum yield of 0.85.
Where the note is “in Cc1ccccc1”, `CCCCCCCCCC1(CCCCCCCCC)c2cc(C#Cc3ccc(/C=C/c4ccc(N(CCCCCCCC)CCCCCCCC)cc4)cc3)ccc2-c2ccc(C#Cc3ccc(/C=C/c4ccc(N(CCCCCCCC)CCCCCCCC)cc4)cc3)cc21` came in with a photoluminescence quantum yield of 0.61.
For the compound `CCC1=C(C)C2=Cc3c4ccccc4c4n3[B-](c3ccc5cc6ccccc6cc5c3)(Oc3ccccc3-4)[N+]2=C1C` (stereo unspecified), the photoluminescence quantum yield is 0.66 (in CC#N), 0.75 (in CCCCCC), 0.68 (in Cc1ccccc1) and 0.76 (in ClCCl).
Consider `CC(C)(C)c1ccc2oc3nc4oc5cc(-n6c7ccccc7c7ccccc76)ccc5c4cc3c2c1`, for which, where the note is “in ClC(Cl)Cl”, the photoluminescence quantum yield turned out to be 0.714.
`Cc1cc(-c2nc(-c3ccccc3)nc(-c3ccccc3)n2)ccc1-c1ccc2c(c1)C1(c3ccccc3-c3ccccc31)c1ccccc1N2c1ccccc1`: the photoluminescence quantum yield (in c1cc(-c2cccc(-n3c4ccccc4c4ccccc43)c2)cc(-n2c3ccccc3c3ccccc32)c1) came out at 1.
As for `c1ccc(-c2nc(-c3ccccc3)nc(-c3cc(-n4c5ccccc5c5ccccc54)c(-n4c5ccccc5c5ccccc54)c(-n4c5ccccc5c5ccccc54)c3)n2)cc1`, the photoluminescence quantum yield by setting is: (in O=P(c1ccccc1)(c1ccccc1)c1ccc2oc3ccc(P(=O)(c4ccccc4)c4ccccc4)cc3c2c1) 0.82; (in O=P(c1ccccc1)(c1ccccc1)c1ccccc1Oc1ccccc1P(=O)(c1ccccc1)c1ccccc1) 1.
Compound `CCCCC(CC)COc1ccc2nc(-c3ccc(-c4c(C)noc4C)s3)sc2c1` (stereo unspecified) returned a photoluminescence quantum yield (in ClCCl) of 0.72.
For `CCOC(=O)c1cc(C(=O)OCC)c2cc(O)ccc2n1`, for the setting “in CCO”, the photoluminescence quantum yield was determined as 0.16.
On to `CCCCn1c(-c2ccc(-c3nnc(-c4ccc(-c5nc(-c6ccccc6)c(-c6ccccc6)n5CCCC)cc4)o3)cc2)nc(-c2ccccc2)c1-c1ccccc1`, for which the photoluminescence quantum yield (in ClCCl) is 0.69.
Consider `CCCCc1ccc(-n2c3c4cc(F)ccc4nnc3c3c2c2nnc4ccc(F)cc4c2n3-c2ccc(CCCC)cc2)cc1`, for which the photoluminescence quantum yield (in Cc1ccccc1) was 0.
For `c1ccc2cc(-c3cc(-c4nccs4)nc(-c4nccs4)c3)ccc2c1`, the photoluminescence quantum yield came out at 0.36 (in CC#N), 0.289 (in CCCCCC), 0.328 (in CO) and 0.166 (in ClC(Cl)Cl).
In turn, `CCCCN1C(=O)c2cc(Br)c3c4c(Br)c(Br)c5c6c(cc(Br)c(c7c(Br)c(Br)c(c2c37)C1=O)c64)C(=O)N(CCCC)C5=O` registered a photoluminescence quantum yield (in ClC(Cl)Cl) of 0.11.
In the case of `CN(C)c1ccc2nc(-c3ccc(/C=N/Nc4ccccc4)cc3)sc2c1`, the photoluminescence quantum yield runs as follows: (in C1CCCCC1) 0.023; (in CC#N) 0.067; (in CO) 0.026; (in ClC(Cl)Cl) 0.057.
